A value given as a limit tells only on which side of the number the result lay.

Here are results for 87 molecules from a melting point compilation (Tetko et al.; mined from patent text by program, amines drawn as free bases though some values may be those of a salt).

The melting point is the temperature, or range, at which the solid turns liquid. The molecule `CCCC/C=C/C(=O)N(C)c1ccc(S(=O)(=O)NC2CCCCCC2)cc1` gave a melting point of 114 °C.
The same measure for `CN(C)CC(C)(C)Cn1ccc(-c2ccc(F)cc2)c1-c1ccncc1`: 101 to 103 °C; for `Cc1cc(NC2CN(C(=O)OCc3ccccc3)CC2O)c2cc(C)c(-c3ccc(Cl)cc3Cl)n2n1` (configuration not stated): 105 to 110 °C; for `NCc1cn(C2CCc3ccccc3C2)c(=S)[nH]1` (configuration not stated): 197 to 200 °C.
Consider `C#CCNc1nc2cc3ccccc3cc2nc1Cl`, for which the melting point fell in the range of 169 to 172 °C.
The value for `Nc1nnn(C2CN3CCC2CC3)n1` (configuration not stated) was 132 to 134 °C; that for `c1ccc(COc2ccc(Cn3cnc4c(-c5ccco5)ncnc43)cc2)cc1` was 145 to 146 °C.
`Cc1cccc(C(=O)Nc2ccc3c(c2)CC(N(C)Cc2ccccn2)C3)c1-c1ccc(C(F)(F)F)cc1` (configuration not stated) gave a melting point of 105 to 115 °C.
The same measure for `OCCN(CCO)Cc1ccc(-c2cc3ncnc(Nc4ccc5[nH]ccc5c4)c3s2)cc1`: 110 to 127 °C; for `CC(C)(C)c1nn(-c2ccc([N+](=O)[O-])cc2Cl)c(=O)o1`: 98 °C.
The same measure for `NS(=O)(=O)c1ccc(CCCNCC(O)c2ccccc2)cc1` (configuration not stated): 165 to 166 °C; for `COc1ccc(-c2ccncc2)cc1-c1ccc(Oc2ccccc2)cc1`: 173 to 218 °C.
The same measure for `C=CCN1Cc2cnc(C)n2-c2ccc(Cl)cc2C1c1ccccc1F` (configuration not stated): 140 to 145 °C; for `CCOC(=O)C(=NOCCCl)c1csc(N)n1`: 126 to 128 °C.
`CC(C)C(NS(=O)(=O)c1ccc2c3c(oc2c1)CCCC3)C(=O)O` (configuration not stated) had a melting point of 167 to 169 °C.
For the molecule `CC(=O)c1nc2ccc(S(=O)(=O)c3ccccc3)cc2cc1O`, the melting point was in the range of 179 to 180 °C.
The value for `Cc1ccc(C)n1-c1c(SC(F)(F)F)c(C#N)nn1-c1c(Cl)cc(C(F)(F)F)cc1Cl` was 142 to 144 °C.
The same measure for `CCOCCn1c(N2CCCN(CCC3(c4ccccc4)CCN(C(=O)c4cc(OC)c(OC)c(OC)c4)C3)CC2)nc2ccccc21` (configuration not stated): 82 to 94 °C; for `CCc1cc(N)c(C(=O)OC)c(CC)n1`: 75 °C; for `COc1ccc2c(c1)Cc1c([nH]cnc1=O)N2`: over 300 °C.
The value for `CC(=O)C1C(Cl)CC2C3CCC4CC(O)C(Cl)CC4(C)C3C(=O)CC21C` (configuration not stated) was 192 to 194 °C.
Regarding `O=C1NC(=O)C2(N1)C(=O)N(Cc1ccc(Br)cc1F)c1c(Cl)cccc12` (configuration not stated), the melting point lay within 240 to 241 °C.
As for `O=c1[nH]c2ccccc2n1CCCCCCN1CCN(C(c2ccccc2)c2ccccc2)CC1`, the melting point turned out to be 190 °C.
Consider `CCN1CCCC1CNC(=O)c1cc(S(=O)(=O)N(C)C)cc2c1OCCO2` (configuration not stated), for which the melting point lay in the range of 146 to 148 °C.
Molecule `CCOC(=O)c1cn(C)c2ccc(C(=O)c3c(C)cc4ccccn34)cc2c1=O` had a melting point of 232 °C.
Regarding `Clc1cccc2c(CN3CCN(c4cc5ccccc5cn4)CC3)n[nH]c12`, the melting point fell in the range of 208 to 209 °C.
`Cc1nc(NC(=O)c2ccccc2)sc1C(=O)NCc1ccccc1C(F)(F)F` gave a melting point of 198 to 199 °C.
The same measure for `COC(=O)C1=C(C)NC(C)=C(C(=O)OCCCl)C1c1cccc([N+](=O)[O-])c1` (configuration not stated): 129 to 131 °C; for `CCCCN(CCCC)C(=O)CN1CC(c2ccc3c(c2)OCO3)C(C(=O)O)C1c1ccncc1` (configuration not stated): 131 to 132 °C.
As to `c1ccc(-c2nc3ccc(Cn4ccnc4)cc3nc2-c2ccccc2)cc1`, the melting point turned out to be 159 °C.
The same measure for `COc1ccc(F)cc1Oc1c(Cl)ncnc1NS(=O)(=O)c1ccc(Cl)cc1`: 169 to 171 °C; for `Cc1c(/C=C/C(=O)c2ccc3ccccc3c2)ncn1C(c1ccccc1)(c1ccccc1)c1ccccc1`: 194 to 197 °C; for `CC(C)(C)OC(=O)NCCSc1cc(-c2ccccc2)on1`: 87 to 88 °C.
The value for `CC1CC(N)=NN1c1ccc(Cl)cn1` (configuration not stated) was 168 to 170 °C.
In turn, `C[C@H](NC(=O)OC(C)(C)C)C(=O)N1CCC[C@H]1C(=O)O` yielded a melting point of 155 to 157 °C.
The molecule `O=C(O)c1ccc(Cn2cc(C3c4ccc(C(F)(F)F)cc4C=Cc4cc(C(F)(F)F)ccc43)c(=S)[nH]c2=O)o1` had a melting point of 159 to 162 °C.
As for `COc1cc2cc([N+](=O)[O-])c(OCc3ccccc3)cc2oc1=O`, the melting point was in the range of 226 to 228 °C.
Molecule `CN(N=[N+](C)[O-])c1ccccc1` yielded a melting point of 55 to 56 °C.
The value for `CC1(C)C(C(=O)O)C1C(Br)C(Br)(Br)Br` (configuration not stated) was 150 °C; that for `Cc1c(Nc2c(C#N)cnc3scc(CO)c23)ccc2[nH]ccc12` was 230 °C; that for `O=C(O)c1ccc(CCOCCCCCCBr)cc1` was 85 to 87.5 °C.
The value for `CCNc1cccnc1N1CCN(C(=O)c2ccc(C(=O)OC)cc2)CC1` was 96 to 97 °C; that for `O=C(CS(=O)Cc1ccc(F)cc1)NO` (configuration not stated) was 176 to 177 °C; that for `CC(=O)SCC(CC(C)C)C(=O)Nc1cc(C)cc(C(=O)O)c1` (configuration not stated) was 185 to 187 °C.
`Clc1ccc(CNc2nc(-c3nccc4ccccc34)nc3ccccc23)cc1` came in with a melting point of 221 to 224 °C.
In the case of `O=C(O)Cc1cccc(NC(=O)NC2C(=O)N(CC(=O)N3CCCC3)c3ccccc3N(c3ccccc3F)C2=O)c1` (configuration not stated), the melting point fell in the range of 197 to 199 °C.
The value for `OCCCCc1ccc(OCc2ccccc2)cc1` was 59 to 60 °C; that for `O=C1c2ccccc2C(=O)N1OCCCN1CCN(c2cccc(Cl)c2)CC1` was 140 to 142 °C; that for `O=C1Nc2cc(Cl)ccc2C1(Br)Br` was 127 to 130 °C.
The value for `CC(C)Cn1cnc2c(N)nc3cccc(-c4ccccc4)c3c21` was 263 to 265 °C; that for `CCOC(OCC)c1cc(NC(c2ccccc2)(c2ccccc2)c2ccccc2)c(F)cn1` was 125 to 127 °C; that for `Cc1ccccc1-c1coc2cc(OCC(=O)O)cc(Cl)c2c1=O` was 191 to 192 °C.
The same measure for `CS(=O)(=O)c1ccc(-c2cnn(Cc3ccsc3)c(=O)c2-c2ccc(F)cc2)cc1`: 169 to 172 °C; for `CC(=O)c1nc2cc(Cl)ccc2cc1OCc1ccccc1`: 76 to 77 °C; for `CC(=O)c1ccc(S(=O)(=O)NCCc2ccc(CC(=O)O)cc2)cc1`: 193 to 194 °C.
`O=C(Nc1cccc(Oc2ccccc2)c1)c1ccn2c1CSC2c1cccnc1` (configuration not stated) showed a melting point of 144 °C.
`Cc1ccc(S(=O)(=O)c2c(N3CCN(C(=O)c4cccs4)CC3)c3ccccc3n(C)c2=O)cc1` gave a melting point of 213 °C.
For the molecule `CCOC(=O)COc1cc2c(c(Cl)c1Cl)C(=O)C(CC)C2` (configuration not stated), the melting point is 116 to 118 °C.
The same measure for `CC(C)(C)ONC(=O)c1ccc(Cc2ccc(N)cc2)cc1`: 110 to 118 °C; for `CCOC(=O)NN=C(c1cccnc1)C1COCOC1`: 132 °C; for `Cc1cc(-c2ncn3c(C(F)(F)F)cc(-c4ccc(C(F)(F)F)c(C)c4)nc23)ccn1`: 243 °C.
With `CCOC(=O)C1=C(C)NC(O)(c2cccc(Cl)c2)C(C(=O)OCC)C1c1cccc([N+](=O)[O-])c1` (configuration not stated), the melting point lay within 212 to 214 °C.
In turn, `Cn1cncc1C(CC#N)(c1ccc(Cl)cc1)c1ccc2c(c1)c(-c1cccc(Cl)c1)cc(=O)n2C` (configuration not stated) showed a melting point of 151 °C.
Regarding `O=C(c1ccc(Cl)cc1)c1ccc(-n2ccnc2)nc1`, the melting point lay in the range of 155 to 156 °C.
The value for `COc1cc2c(cc1O)CCN(Cc1ccccc1OC)C2` was 128 to 129 °C; that for `CCOC(=O)c1cn(Cc2cnsn2)c2c(F)c(F)c(F)cc2c1=O` was 200 to 203 °C; that for `O=C(O)CCC(=NO)c1ccc(-n2cccn2)cc1` was 128 to 130 °C.
The same measure for `CCN(CC)C(=O)C(Cl)=C(Cl)C(=O)O`: 154 to 155 °C; for `Cc1cc(Nc2ccnc(Nc3ccc(S(=O)(=O)N4CCC(C(O)Cc5ncccc5C)CC4)cc3)n2)ccc1F` (configuration not stated): 103 to 104 °C; for `COc1ccc2c(c1)Oc1c(ccc(OC)c1C=O)C2(C)C`: 84.5 to 86 °C.
The value for `COc1ccc(N2CCN(c3ccc(OC)nc3-c3ccc(N(C)C)cc3)C(C)C2)cc1` (configuration not stated) was 140 to 148 °C; that for `Cc1nc(NC(=O)c2cnn3c(C(F)(F)F)cc(-c4ccc(Cl)c(Cl)c4)nc23)sc1S(N)(=O)=O` was 307 °C; that for `CC(=O)Nc1ccc(C23CC2C(=O)N(C)C3=O)cc1` (configuration not stated) was 183 to 184 °C.
`COc1nc(C(C)(C)O)cnc1NS(=O)(=O)c1cccc(Cl)c1Cl` displayed a melting point of 192 to 193 °C.
As for `C=CCC1c2ccccc2Cn2cc3c(c21)C(=O)c1ccccc1C3=O` (configuration not stated), the melting point is 159 to 160 °C.
The same measure for `Cc1ccc(OCC(=O)c2cc(C(C)(C)C)c(O)c(C(C)(C)C)c2)c(-n2nc3ccccc3n2)c1`: 155 to 157 °C.
Molecule `CNC(=O)Nc1ccc(O)c(Cl)c1` showed a melting point of 188 to 189 °C.
The same measure for `N#Cc1ccc(OCc2ccc3c(c2)OCO3)cc1OC(C(=O)O)c1ccccc1C(F)(F)F` (racemic): 137 to 138 °C; for `CCCCOCCOc1ccc(-c2ccc(N3CCCC3)c(C(C)=CC(=O)OCC)c2)cc1`: 81 to 82 °C.
In the case of `CC(C)(C)c1cc(C=C2CCNC2=O)cc(C(C)(C)C)c1O`, the melting point fell in the range of 216 to 218 °C.
Molecule `COC(=O)c1ccc(CC(=O)Nc2cc(Cl)ccc2N2CCCCC2)cc1` returned a melting point of 156 to 158 °C.
The value for `Cc1nc(O)c([N+](=O)[O-])c(N2CCc3cncnc3CC2)n1` was over 200 °C.
`CCCC(=CC(=O)Nc1ccccc1)OC`: the melting point was determined as 104 °C.
The molecule `CC(C(O)C(C)(C)Cc1ccc(OC(F)(F)F)cc1)n1ncnc1S` (configuration not stated) gave a melting point of 125 to 126 °C.
The same measure for `CCCC1OCC(C)n2c1nc1c(N)nc3ccccc3c12` (configuration not stated): 243 to 268 °C.
`CC(C)P1(=O)c2ccccc2CN1Cc1ccccc1` (configuration not stated) showed a melting point of 145 to 147 °C.
`Oc1cccc(CCNCc2ccccc2)c1`: the melting point was in the range of 86 to 88 °C.
